Data: patent US20230048512A1, “COCRYSTALS OF PTEROSTILBENE AND COMPOSITIONS COMPRISING THEM” (CENTER FOR INTELLIGENT RESEARCH IN CRYSTAL ENGINEERING, S.L., priority 2019, published 2023)
Several values for one entry are separate records, joined by “and”; a condition that tells them apart may be missing. Identical values can stand only once. Blank lines part the entries; values can stand above or below the molecule they belong to.

Experiments:
[1] = Dissolution rate of tablets of the solid forms in FaSSIF v2 (small-scale dissolution assay, UV quantification, Noyes-Whitney fit); type: physicochemical; details: FaSSIF v2 (pH 6.5), 25° C., 120 minutes, 3 mm tablet
Description: 1. Molar Extinction Coefficient (MEC) determination in FaSSIF v2 medium
Molar extinction coefficients of pterostilbene and of each coformer were determined by UV-metric titration using a GlpKaTM titrator (Sirius Analytical Instruments, UK). Briefly, a 10 mM stock solution of sample was prepared in DMSO. […] of sample stock solution and 0.25 mL of a 15 mM potassium phosphate buffer were added to 10 mL of a 0.15 M KCI solution, which in turn contained 17.9 mg of FaSSIF v2 powder. The pH of the sample solution was adjusted to 2 with 0.5 M HCI before starting the titration, and then the titration was done using 0.5 M KOH up to pH 12. The UV absorption spectra (between 250 and 450 nm) of the solution were recorded at each titrant addition by a fiber optic dip-probe. The collected data were refined through the RefinamentPro software, and the pKa values and Molar Extinction Coefficients obtained by Target Factor Analysis.
2. Dissolution Rate experiments • Tablet production: tablets of 3 mm diameter were prepared using a manual hydraulic tablet press (Applied Measurements Ltd, UK). The applied pressure was 100 Kg for 2 min. From 10 to 15 mg of each solid form, pterostilbene or cocrystal, were weighted. The total exposed surface area was 0.5 cm^2. • Medium: FaSSIF v2 (pH 6.5), with corresponding amount of phosphoric (28.4 mM) acid instead of maleic acid. • Dissolution tests were performed with a small-scale dissolution assay installed in a GlpKaTM titrator (Sirius Analytical Instruments, UK). • Dissolution time and temperature: 120 minutes and 25° C. • Procedure: 15 mL of FaSSIF v2 was added into the sample vial containing the tablet. Spectra collection started immediately after. Spectra were recorded every 30 seconds between 250 and 450 nm through a Sirius D-PAS spectrometer with a bifurcated optic fibre dip probe (Hellma Analytics). The medium was stirred at a constant rate.
The concentration of pterostilbene in solution at each time point is determined from the spectroscopic data by applying the Beer-Lambert law, using previously determined molar extinction coefficients of pure pterostilbene. Spectrum regions where signal is saturated (A>1.5) or presenting medium interferences were discarded. Then, the concentration data were converted into absolute sample quantities, and used to generate the graphs showing the sample quantity vs. time.
4. Determination of the dissolution rate
Dissolution rate is obtained through the fit of the first order Noyes-Whitney exponential equation to the data: […]
In this equation, [X]t is the weight in grams of compound in solution at the experiment time (min); S is the extrapolated solubility (g) of pterostilbene; kd is the rate constant for dissolution (min^−1); and to (min) is a term allowing for a temporal offset. Results are calculated using a refinement process in which S, kd and t0 are varied in order to minimize the root mean square deviation between the modelled concentrations and the measured concentrations. The dissolution rate (g min^−1) is given by the product kdS (T. Gravestock et al., 2011).

[2] = Pharmacokinetics of pterostilbene in rat plasma after single oral administration; type: in vivo, Male Sprague-Dawley rats; details: for Plasma concentration of pterostilbene, Mean (arithmetic) / Plasma concentration of pterostilbene, individual animals 1-5: 20 mg/kg P56-VIII (13.5 mg/kg as pterostilbene) single oral
Description: In-life phase • Animals: Male Sprague-Dawley rats (weight: 417.9-458.6 g) • Administration: Oral (single dose) • Dose: 20 mg/kg P56 (pterostilbene, free base) 20 mg/kg P56-VIII (cocrystal of pterostilbene and picolinic acid; 13.5 mg/kg as pterostilbene free base) • Formulation: Suspension (0.5% carboxymethylceluulose, CMC) • Adm. volume: 10 ml/kg • Fed/fasted state: Fasted (at least 8 hours prior dosing) • Sampling: Six blood samples/animal (1, 2, 4, 6, 8 and 24 hours post-adm.) • Plasma samples: Plasma samples using K3-EDTA as anticoagulant.
Samples were immediately frozen at −80° C. until their analysis
Pharmacokinetic analysis was performed by non-compartmental pharmacokinetic analysis using Kinetica v5 software (Alfasoft Limited, Luton, UK). Descriptive statistics was performed using Microsoft Excel spreadsheet 2007 (Microsoft Inc, Redmond, US). Plasma bioanalysis was made by LC-MS/MS.
Concentration values below the lower limit of quantification (BLQ) were set to zero, whereas missing concentration values were not considered for statistical and pharmacokinetic evaluations. All computations used the nominal sampling times, nominal doses and concentrations levels were expressed as free base. The numerical data presented below were computer generated. Because of rounding, recalculation of derived values from individual data presented herein below could, in some instances, yield minor variation.
The area under the plasma concentration-time curve from 0 to t (AUC0-t) was determined by using the trapezoidal rule. […] The terminal half-life was determined according to the following rules: (a) time interval equal to at least 1.5 x t1/2, (b) regression analysis (straight line on the log-transformed scale) contained data from at least 3 different time points in the terminal phase and as many data points as possible (always including the last quantifiable concentration but excluding the Cmax), and (c) the coefficient of determination (r^2) was ≥0.85. If at least one of these three conditions was not fulfilled, the terminal half-life and the parameters depending on t1/2 were listed but flagged as not reliably calculated. If the percentage of extrapolated AUC was more than 20%, the individual AUCinf result were listed but flagged as not reliably calculated. Flagged parameters were not included in descriptive statistics and statistical testing procedures.

[3] = 20 mg/kg P56-VIII (13.5 mg as pterostilbene) single oral, fasted male SD rats
[4] = 20 mg/kg cocrystal (13.5 mg/kg as pterostilbene) vs 20 mg/kg P56, single oral, rats

SMILES: COc1cc(/C=C/c2ccc(O)cc2)cc(OC)c1 [Pterostilbene (Form VI), Form VI of pterostilbene]
dissolution rate [1]: 7.4 ± 1.8 nmol/min

SMILES: COc1cc(/C=C/c2ccc(O)cc2)cc(OC)c1.Cn1c(=O)c2c(ncn2C)n(C)c1=O [Pterostilbene:caffeine cocrystal, reference compound]
dissolution rate [1]: 45.4 ± 9.2 nmol/min

SMILES: COc1cc(/C=C/c2ccc(O)cc2)cc(OC)c1.COc1cc(/C=C/c2ccc(O)cc2)cc(OC)c1.NCCN [Pterostilbene:ethylendiamine cocrystal, pterostilbene:ethylendiamine cocrystal (2:1)]
dissolution rate [1]: 176.1 ± 12.6 nmol/min

SMILES: COc1cc(/C=C/c2ccc(O)cc2)cc(OC)c1.ClCCl.Cn1c(=O)c2[nH]cnc2n(C)c1=O [Pterostilbene:theophylline cocrystal, cocrystal solvate of pterostilbene:theophylline: dichloromethane (1:1:1)]
dissolution rate [1]: 33.5 ± 6.7 nmol/min

SMILES: COc1cc(/C=C/c2ccc(O)cc2)cc(OC)c1.COc1cc(/C=C/c2ccc(O)cc2)cc(OC)c1.Cc1cnc(C)c(C)n1 [cocrystal of pterostilbene:2,3,5-trimethylpirazine (2:1)]
dissolution rate [1]: 52.0 ± 5.8 nmol/min

SMILES: COc1cc(/C=C/c2ccc(O)cc2)cc(OC)c1.O=C(O)c1ccccn1 [cocrystal of pterostilbene:picolinic acid (1:1)]
dissolution rate [1]: 427.8 ± 29.5 nmol/min
AUC0-t, Mean [2, 3]: 4699 ng·h/mL
AUC0-t, individual animals 1-5 [2, 3]: 4384 ng·h/mL and 3776 ng·h/mL and 4059 ng·h/mL and 9824 ng·h/mL and 1452 ng·h/mL
AUCinf, Mean [2, 3]: 4772 ng·h/mL
AUCinf, individual animals 1-5 [2, 3]: 4422 ng·h/mL and 3805 ng·h/mL and 4178 ng·h/mL and 9855 ng·h/mL and 1602 ng·h/mL
Cmax, Mean [2, 3]: 567.8 ng/mL
Cmax, individual animals 1-5 [2, 3]: 695.2 ng/mL and 337.4 ng/mL and 513.3 ng/mL and 991.8 ng/mL and 301.1 ng/mL
t1/2 (terminal elimination half-life), Mean [2, 3]: 3.3 h
t1/2 (terminal elimination half-life), individual animals 1-5 [2, 3]: 3.7 h and 3.2 h and 5.1 h and 2.8 h and 1.9 h
tmax, Median [2, 3]: 2 h
tmax, individual animals 1-5 [2, 3]: 1 h and 6 h and 4 h and 2 h
Plasma concentration of pterostilbene, Mean (arithmetic) ([2]; fasted male SD rats, 1 h): 504.7 ng/mL
Plasma concentration of pterostilbene, individual animals 1-5 ([2]; fasted male SD rats, 1 h): 513.3 ng/mL and 980.0 ng/mL and 189.8 ng/mL and 695.2 ng/mL and 145.5 ng/mL
Plasma concentration of pterostilbene, Mean (arithmetic) ([2]; fasted male SD rats, 2 h): 514.3 ng/mL
Plasma concentration of pterostilbene, individual animals 1-5 ([2]; fasted male SD rats, 2 h): 462.8 ng/mL and 952.8 ng/mL and 301.1 ng/mL and 587.9 ng/mL and 266.9 ng/mL
Plasma concentration of pterostilbene, Mean (arithmetic) ([2]; fasted male SD rats, 4 h): 451.7 ng/mL
Plasma concentration of pterostilbene, individual animals 1-5 ([2]; fasted male SD rats, 4 h): 262.6 ng/mL and 991.8 ng/mL and 224.7 ng/mL and 538.5 ng/mL and 240.8 ng/mL
Plasma concentration of pterostilbene, Mean (arithmetic) ([2]; fasted male SD rats, 6 h): 305.6 ng/mL
Plasma concentration of pterostilbene, individual animals 1-5 ([2]; fasted male SD rats, 6 h): 150.6 ng/mL and 663.7 ng/mL and 153.8 ng/mL and 222.5 ng/mL and 337.4 ng/mL
Plasma concentration of pterostilbene, Mean (arithmetic) ([2]; fasted male SD rats, 8 h): 214.8 ng/mL
Plasma concentration of pterostilbene, individual animals 1-5 ([2]; fasted male SD rats, 8 h): 210.5 ng/mL and 449.2 ng/mL and 53.5 ng/mL and 136.4 ng/mL and 224.6 ng/mL
Plasma concentration of pterostilbene, Mean (arithmetic) ([2]; fasted male SD rats, 24 h): 7.54 ng/mL
Plasma concentration of pterostilbene, individual animals 1-5 ([2]; fasted male SD rats, 24 h, BLQ = <5 ng/ml): 16.4 ng/ml and 7.67 ng/ml and BLQ and 7.16 ng/ml and 6.50 ng/ml
increase in AUCinf compared to the P56 formulation [2, 4]: about 10 fold
increase in Cmax compared to the P56 formulation [2, 4]: around 6 fold

SMILES: COc1cc(/C=C/c2ccc(O)cc2)cc(OC)c1.COc1cc(/C=C/c2ccc(O)cc2)cc(OC)c1.O=C(O)c1ccccn1 [cocrystal of pterostilbene:picolinic acid (2:1)]
dissolution rate [1]: 351.3 ± 18.9 nmol/min

dissolution rate [1]: 230.4 ± 26.59 nmol/min
SMILES: COc1cc(C=Cc2ccc(O)cc2)cc(OC)c1.COc1cc(C=Cc2ccc(O)cc2)cc(OC)c1.NCCN.O.O [pterostilbene:ethylendiamine:H2O cocrystal hydrate (2:1:2)]
